Tests used:
GAPDH = target: T1, GAPDH (Mus musculus, UniProt P16858); assay: S-nitrosylation of GAPDH after TBI (SNO-resin assisted capture, western blot); format: in vivo
T1 construct: from tissue; host or cells: cerebral cortex of C57BL/6J mice after TBI
Experimental: Drug preparation and administration: CGP3466B (Sigma-Aldrich, SML1941) was dissolved in DMSO and then diluted in sterile saline. The final working stock was 0.0014 mg/ml for administering the 0.014 mg/kg dose. Intraperitoneal administration of CGP3466B was initiated 15 min or 24 h after injury, and tissues were harvested 6 h (for SNO-GAPDH, SNO-SIRT1 measurement) or 2 weeks (for ac-tau measurement) later, respectively. Salsalate (AdipoGen, AG-CR1-3574) was dissolved in DMSO and then diluted in sterile PBS. The final working stocks were as follows: 2.5 mg/ml (25 mg/kg dose), 1 mg/ml (10 mg/kg dose), 0.5 mg/ml (5 mg/kg dose). Daily intraperitoneal administration of salsalate was initiated 24 hr after injury and continued throughout behavioral testing. P7C3-A20 and FK866 (Sigma-Aldrich, F8557) were first dissolved in 1 vol of DMSO, followed by addition of 4 vol of Kolliphor and vigorously vortexing. The solution was then diluted with 30 vol of filtered 5% dextrose (pH 7.0). EX527 (Selleckchem, S1541) was dissolved in 1% DMSO+30% polyethylene glycol+1% Tween 80. Daily intraperitoneal administration of P7C3-A20 was initiated 24 hr after poly-traumatic brain injury. EX527 (10 mg/kg) was administer once a day and FK866 was treated twice per day, with the first injection given at the same time as P7C3-A20 (20 mg/kg) and the second injection given 6 h later (LoCoco et al., 2017 eLife). Diflunisal was first dissolved in 1 vol of DMSO, followed by addition of 2 vol of Kolliphor and vigorously vortexing. […]
SNO-resin assisted capture (SNO-RAC): SNO-RAC was performed as described previously (Forrester, 2009). […] After two times centrifugation (20,000 g at 4° C. for 20 min), protein concentration of supernatants was determined using Coomassie protein assay (Thermo Scientific, #1856210). […] SNO-proteins were then eluted with 2× Laemmli Sample Buffer (Bio-Rad Laboratories, Inc., #1610737) with 10% beta-mercaptoethanol (Bio-Rad Laboratories, Inc., #1610710) and analyzed by SDS-PAGE and immunoblotting.

Alzheimer's disease = assay: Pharmacoepidemiologic cohort analysis (MarketScan Medicare Supplemental database), incidence of AD; format: in vivo, human
Description: Because ac-tau has been generally reported in the brains of subjects with AD, we evaluated the relationship between salsalate or diflunisal use and incidence of clinically-diagnosed TBI or AD by analyzing 7.23 million U.S. commercially-insured individuals (MarketScan Medicare Supplemental database). We conducted two cohort analyses to evaluate the predicted association, based on individual level of longitudinal patient data and pharmacoepidemiologic methods, as previously established (Cheng et al., 2018). Thus, our two cohorts included: (1) salsalate vs. a matched aspirin population and (2) diflunisal vs. a matched aspirin population (Table 2). For each comparison, we estimated the un-stratified Kaplan-Meier curves and conducted propensity score (PS) stratified (n strata=10) log-rank tests and a Cox regression model after adjusting age, race, sex, and disease comorbidities (including diabetes, hypertension, and coronary artery disease) using a propensity score-matching method (Methods).
Study cohorts. The IBM® MarketScan® Medicare Supplemental Database is one of the first in the U.S. to profile the healthcare experience of retirees with Medicare supplemental insurance paid by employers. The MarketScan Medicare Supplemental Database provides detailed cost, use and outcomes data for healthcare services performed in both inpatient and outpatient settings. For most of the population, the medical claims are linked to outpatient prescription drug claims and person-level enrollment data through the use of unique patient or enrollee identifiers. […] This feature makes the database a robust tool for pharmacoeconomic and outcomes research and helps provide insight into the drug use and spending patterns of older Americans. In this study, the pharmacoepidemiology study utilized the MarketScan Medicare Claims database from 2012 to 2017. The dataset included individual-level diagnosis codes, procedure codes and pharmacy claim data for 7.23 million patients. Pharmacy prescriptions of salsalate, diflunisal, and aspirin were identified by using RxNorm and National Drug Code (NDC).
Outcome measurement. For a subject, a drug episode is defined as from drug initiation to drug discontinuation. Specifically, drug initiation is defined as the first day of drug supply (i.e. 1st prescription date). Drug discontinuation is defined as the last day of drug supply (i.e. last prescription date+days of supply) and without drug supply for the next 60 days. In another word, gaps of less than 60-day of drug supply were allowed within a drug episode. The drug cohort included the first drug episode for each subject. For the final cohorts, demographic variables including age, race, sex and geographical location were collected. […]

p300/CBP = conditions: literature (Shirakawa et al., 2016); cited from earlier work
[1] = patients with pediatric and adolescent congenital muscular dystrophy; cited from earlier work

T1 sequence (P16858 whole entry): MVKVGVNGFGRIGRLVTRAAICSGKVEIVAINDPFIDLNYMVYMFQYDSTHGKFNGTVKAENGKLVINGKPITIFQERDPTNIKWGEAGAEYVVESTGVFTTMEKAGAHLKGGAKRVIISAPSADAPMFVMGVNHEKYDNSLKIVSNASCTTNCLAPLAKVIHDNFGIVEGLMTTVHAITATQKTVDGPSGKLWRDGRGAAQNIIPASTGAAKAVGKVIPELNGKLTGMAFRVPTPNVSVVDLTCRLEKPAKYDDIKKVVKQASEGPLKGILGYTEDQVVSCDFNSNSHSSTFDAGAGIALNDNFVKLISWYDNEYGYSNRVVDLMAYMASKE

Structure (SMILES)	S-nitrosylation of GAPDH (GAPDH; 25 mg/kg salsalate after TBI)	incidence of AD, subgroup analysis (Alzheimer's disease; excluding patients with type 2 diabetes, hypertension, or coronary artery disease, vs. aspirin)	hazard ratio [HR], AD (Alzheimer's disease; vs. PS-matched aspirin cohort, Cox regression model, 6 years of follow-up)	inhibition of p300/CBP (p300/CBP)	S-nitrosylation of GAPDH (GAPDH; CGP3466B 0.014 mg/kg IP initiated 15 min after TBI, cerebral cortex harvested 6 h later, vs. TBI+Vehicle)	safety in Phase 1 clinical trial [1]
O=C(Oc1ccccc1C(=O)O)c1ccccc1O [salsalate]	S-nitrosylation of GAPDH is not affected	associated with decreased incidence of AD	0.57	known inhibitor of rodent and human p300/CBP	–	–
C#CCN(C)CC1=Cc2ccccc2Oc2ccccc21.O=C(O)/C=C\C(=O)O [CGP3466B]	–	–	–	–	inhibits S-nitrosylation of GAPDH and Sirt1	shown safety
